Assay [1] addresses T1, Arginase-1 (Homo sapiens, UniProt P05089).
T1 sequence (P05089 whole entry): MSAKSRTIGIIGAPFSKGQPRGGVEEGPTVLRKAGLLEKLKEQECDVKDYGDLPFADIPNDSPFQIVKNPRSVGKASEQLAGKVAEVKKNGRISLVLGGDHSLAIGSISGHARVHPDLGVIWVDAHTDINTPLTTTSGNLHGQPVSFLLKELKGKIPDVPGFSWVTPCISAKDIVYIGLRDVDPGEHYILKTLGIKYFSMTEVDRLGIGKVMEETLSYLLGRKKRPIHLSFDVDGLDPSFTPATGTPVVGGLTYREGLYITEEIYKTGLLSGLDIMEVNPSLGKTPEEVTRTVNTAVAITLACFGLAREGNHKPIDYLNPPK
Briefly: (§1) Displacement of [14C-guanidino]-L-arginine from human recombinant full length arginase 1 expressed in Escherichia coli BL21(DE3) by fixed point assay.

The target in assay [2] is Histone deacetylase 4 (Homo sapiens, UniProt P56524). Briefly: Inhibition of human HDAC4 catalytic domain (residues Thr648-Thr1057) expressed in Escherichia coli BL21using fluorogenic substrate by fluorescence assay.
Assay [3] has as its target T2, Arginase-1 (Homo sapiens) (UniProt P05089).
T2 sequence (whole entry): T1 sequence (P05089 whole entry)
The description is as §1.

Assay [4] is described as follows: Ratio of IC50 for Mycoplana ramosa acetylpolyamine amidohydrolase to IC50 for HDAC8.

Each structure is given as a SMILES string. Activity calls are given as the source filed them. No cut-off for these calls is given here.

Histone deacetylase 4, sequence (P56524 whole entry, the tested form may be a part): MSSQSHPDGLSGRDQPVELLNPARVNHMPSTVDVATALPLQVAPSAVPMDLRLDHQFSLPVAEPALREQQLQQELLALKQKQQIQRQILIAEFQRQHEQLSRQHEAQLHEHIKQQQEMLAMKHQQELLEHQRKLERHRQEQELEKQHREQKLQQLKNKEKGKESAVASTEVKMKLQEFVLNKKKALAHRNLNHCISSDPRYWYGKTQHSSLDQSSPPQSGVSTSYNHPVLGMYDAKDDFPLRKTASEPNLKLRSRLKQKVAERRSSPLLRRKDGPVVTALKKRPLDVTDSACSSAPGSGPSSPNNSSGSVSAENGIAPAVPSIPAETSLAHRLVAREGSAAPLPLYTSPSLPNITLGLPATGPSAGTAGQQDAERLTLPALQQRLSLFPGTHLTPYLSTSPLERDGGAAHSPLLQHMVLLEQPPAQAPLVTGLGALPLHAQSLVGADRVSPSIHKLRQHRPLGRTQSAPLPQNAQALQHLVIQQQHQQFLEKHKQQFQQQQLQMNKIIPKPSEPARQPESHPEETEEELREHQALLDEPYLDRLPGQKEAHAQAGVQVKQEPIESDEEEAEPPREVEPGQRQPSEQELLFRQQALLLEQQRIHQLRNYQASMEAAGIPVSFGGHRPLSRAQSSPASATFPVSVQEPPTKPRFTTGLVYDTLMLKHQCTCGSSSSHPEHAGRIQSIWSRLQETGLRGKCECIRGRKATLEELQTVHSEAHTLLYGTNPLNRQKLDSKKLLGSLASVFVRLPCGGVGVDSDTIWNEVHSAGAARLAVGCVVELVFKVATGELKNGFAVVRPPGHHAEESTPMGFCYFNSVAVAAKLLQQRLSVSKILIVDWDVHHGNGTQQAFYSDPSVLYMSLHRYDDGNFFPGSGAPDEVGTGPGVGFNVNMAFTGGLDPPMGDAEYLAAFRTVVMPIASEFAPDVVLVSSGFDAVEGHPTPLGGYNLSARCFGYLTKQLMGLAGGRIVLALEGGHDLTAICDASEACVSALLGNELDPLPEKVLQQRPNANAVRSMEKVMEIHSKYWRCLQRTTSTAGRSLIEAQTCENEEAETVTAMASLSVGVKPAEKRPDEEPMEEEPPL

`N[C@@H](CCCCC=O)C(=O)O`: the dissociation constant (Kd) in assay [1] turned out to be 60 µM. `O=C(c1ccc(C(=O)C(F)(F)F)s1)N1CCn2c(-c3ccccc3)cnc2C1`: in assay [2], the half-maximal inhibitory concentration (IC50) worked out at 0.367 µM. In other words, the sub-micromolar range. Take `N[C@@H](CCCCC(=O)C(F)(F)F)C(=O)O`: the inhibition result in assay [3] is “inactive”. The Ratio IC50 in assay [4] is 73.

Values taken from ChEMBL document CHEMBL1833881, “Synthesis of a new trifluoromethylketone analogue of l-arginine and contrasting inhibitory activity against human arginase I and histone deacetylase 8” (Bioorg Med Chem Lett, 2011).
